The values that follow are results of earlier work, collected in patent US20130267562A1, “ACTIVE ENANTIOMER OF DODECYL 2-(N,N-DIMETHYLAMINO)-PROPIONATE” (NEXMED HOLDINGS, INC, priority 2010, published 2013).

Consider `CCCCCCCCCCCCOC(=O)C(C)N(C)C` (racemic) [Racemic DDAIP, dodecyl 2-methyl-2-(N,N-dimethylamino)acetate], for which the “miscibility with organic solvents” value (most organic solvents) was “miscible with most organic solvents”. Also, the solubility in water result (water) is “not soluble”.
